# From BigSolDB 2.1
structure (smiles),measurement,setting,value
CC(CO)(CO)CO,solubility (mole fraction),"in ethyl acetate, 283.15 K",0.00205
same,solubility (mole fraction),"in ethyl acetate, 288.15 K",0.00263
same,solubility (mole fraction),"in ethyl acetate, 293.15 K",0.00335
same,solubility (mole fraction),"in ethyl acetate, 298.15 K",0.00433
same,solubility (mole fraction),"in ethyl acetate, 303.15 K",0.00528
same,solubility (mole fraction),"in ethyl acetate, 311.05 K",0.00673
same,solubility (mole fraction),"in ethyl acetate, 313.15 K",0.00841
same,solubility (mole fraction),"in ethyl acetate, 318.15 K",0.0105
same,solubility (mole fraction),"in methyl acetate, 283.15 K",0.0026
same,solubility (mole fraction),"in methyl acetate, 288.15 K",0.00317
same,solubility (mole fraction),"in methyl acetate, 293.15 K",0.00398
same,solubility (mole fraction),"in methyl acetate, 298.15 K",0.00512
same,solubility (mole fraction),"in methyl acetate, 303.15 K",0.00638
same,solubility (mole fraction),"in methyl acetate, 311.05 K",0.00801
same,solubility (mole fraction),"in methyl acetate, 313.15 K",0.00997
same,solubility (mole fraction),"in methyl acetate, 318.15 K",0.013
same,solubility (mole fraction),"in n-butanol, 283.15 K",0.0386
same,solubility (mole fraction),"in n-butanol, 288.15 K",0.0449
same,solubility (mole fraction),"in n-butanol, 293.15 K",0.0535
same,solubility (mole fraction),"in n-butanol, 298.15 K",0.0634
same,solubility (mole fraction),"in n-butanol, 303.15 K",0.0769
same,solubility (mole fraction),"in n-butanol, 311.05 K",0.0914
same,solubility (mole fraction),"in n-butanol, 313.15 K",0.11
same,solubility (mole fraction),"in n-butanol, 318.15 K",0.131
